Measured values from ChEMBL document CHEMBL1201862, “PubChem BioAssay data set” (2004).
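Briefly, cells in 96-well plates were exposed to five compound concentrations for 48 h, and endpoints were estimated by linear interpolation. GI50 is the concentration that inhibits growth by half.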 Activity calls are given as the source filed them. Rule as the data show it: active = GI50 up to about 1.1 µM and inactive = higher.

Tests used:
Assay in all cases: NCI anticancer screen, dose series, 48 h
HL-60 = tested on: HL-60
K562 = tested on: K562
HCC 2998 = tested on: HCC 2998
MDA-N = tested on: MDA-N
COLO 205 = tested on: COLO 205
UACC-257 = tested on: UACC-257
HOP-62 = tested on: HOP-62
UO-31 = tested on: UO-31
IGROV-1 = tested on: IGROV-1
SR = tested on: SR
OVCAR-8 = tested on: OVCAR-8
SF-295 = tested on: SF-295
SK-MEL-5 = tested on: SK-MEL-5
LOX IMVI = tested on: LOX IMVI
CCRF-CEM = tested on: CCRF-CEM
T47D = tested on: T47D
TK-10 = tested on: TK-10
OVCAR-5 = tested on: OVCAR-5
OVCAR-3 = tested on: OVCAR-3
U-251 = tested on: U-251
NCI/ADR-RES = tested on: NCI/ADR-RES
SK-OV-3 = tested on: SK-OV-3
DU-145 = tested on: DU-145
SK-MEL-2 = tested on: SK-MEL-2
NCI-H460 = tested on: NCI-H460
NCI-H522 = tested on: NCI-H522
MOLT-4 = tested on: MOLT-4
HCT-116 = tested on: HCT-116
CAKI-1 = tested on: CAKI-1
SN12C = tested on: SN12C
SK-MEL-28 = tested on: SK-MEL-28
HOP-92 = tested on: HOP-92
SW-620 = tested on: SW-620
SNB-75 = tested on: SNB-75
M14 = tested on: M14
NCI-H226 = tested on: NCI-H226
HCT-15 = tested on: HCT-15
OVCAR-4 = tested on: OVCAR-4
A549 = tested on: A549
NCI-H23 = tested on: NCI-H23
RPMI-8226 = tested on: RPMI-8226
PC-3 = tested on: PC-3
MDA-MB-231 = tested on: MDA-MB-231
HT-29 = tested on: HT-29
SNB-19 = tested on: SNB-19
MDA-MB-435 = tested on: MDA-MB-435
ACHN = tested on: ACHN
Hs-578T = tested on: Hs-578T
SF-539 = tested on: SF-539
Malme-3M = tested on: Malme-3M
A498 = tested on: A498
SF-268 = tested on: SF-268
MCF7 = tested on: MCF7
786-0 = tested on: 786-0
EKVX = tested on: EKVX
UACC-62 = tested on: UACC-62
KM12 = tested on: KM12

With `CCP(=O)(CC)C(Cl)(Cl)C(=O)NC` the GI50 (HL-60) was > 100 µM (inactive), the GI50 (K562) was > 100 µM (inactive) and the GI50 (HCC 2998) was > 100 µM (inactive). For the same compound, the GI50 (MDA-N) was > 100 µM (inactive), the GI50 (COLO 205) was > 100 µM (inactive) and the GI50 (UACC-257) was > 100 µM (inactive). For the same compound, the GI50 (HOP-62) was > 100 µM (inactive), the GI50 (UO-31) was > 100 µM (inactive) and the GI50 (IGROV-1) was > 100 µM (inactive). The GI50 (SR) was > 100 µM (inactive), the GI50 (OVCAR-8) was > 100 µM (inactive) and the GI50 (SF-295) was > 100 µM (inactive). The GI50 (SK-MEL-5) was > 100 µM (inactive), the GI50 (LOX IMVI) was > 100 µM (inactive) and the GI50 (CCRF-CEM) was > 100 µM (inactive). The GI50 (T47D) was > 100 µM (inactive), the GI50 (TK-10) was > 100 µM (inactive) and the GI50 (OVCAR-5) was > 100 µM (inactive). The GI50 (OVCAR-3) was > 100 µM (inactive), the GI50 (U-251) was > 100 µM (inactive) and the GI50 (NCI/ADR-RES) was > 100 µM (inactive). The GI50 (SK-OV-3) was > 100 µM (inactive), the GI50 (DU-145) was > 100 µM (inactive) and the GI50 (SK-MEL-2) was > 100 µM (inactive). For the same compound, the GI50 (NCI-H460) was > 100 µM (inactive), the GI50 (NCI-H522) was > 100 µM (inactive) and the GI50 (MOLT-4) was > 100 µM (inactive). For the same compound, the GI50 (HCT-116) was > 100 µM (inactive), the GI50 (CAKI-1) was > 100 µM (inactive) and the GI50 (SN12C) was > 100 µM (inactive). The GI50 (SK-MEL-28) was > 100 µM (inactive), the GI50 (HOP-92) was > 100 µM (inactive) and the GI50 (SW-620) was > 100 µM (inactive). The GI50 (SNB-75) was > 100 µM (inactive), the GI50 (M14) was > 100 µM (inactive) and the GI50 (NCI-H226) was > 100 µM (inactive). The GI50 (HCT-15) was over 100 µM, the GI50 (OVCAR-4) was > 100 µM (inactive) and the GI50 (A549) was > 100 µM (inactive). The GI50 (NCI-H23) was > 100 µM (inactive), the GI50 (RPMI-8226) was > 100 µM (inactive) and the GI50 (PC-3) was > 100 µM (inactive). For the same compound, the GI50 (MDA-MB-231) was > 100 µM (inactive), the GI50 (HT-29) was > 100 µM (inactive) and the GI50 (SNB-19) was > 100 µM (inactive). The GI50 (MDA-MB-435) was > 100 µM (inactive), the GI50 (ACHN) was > 100 µM (inactive) and the GI50 (Hs-578T) was > 100 µM (inactive).

`CC(=O)OCC1OC(O[C@@H]2C[C@H]3C(C)(C)[C@H](OC(C)=O)CC[C@]3(C)[C@H]3CC[C@]4(C)C(=CC[C@H]4[C@@H](C)C[C@@H](O)[C@H](O)C(C)(C)O)[C@@]32C)C(O)C(O)C1O` (stereo partly specified) was tested, and the GI50 (HL-60) was 15.7 µM (inactive), the GI50 (K562) was 18.3 µM (inactive) and the GI50 (HCC 2998) was 20.8 µM (inactive). For the same compound, the GI50 (MDA-N) was 18.4 µM (inactive), the GI50 (SF-539) was 16.4 µM (inactive) and the GI50 (COLO 205) was 14 µM (inactive). For the same compound, the GI50 (UACC-257) was 19 µM (inactive), the GI50 (Malme-3M) was 17.8 µM (inactive) and the GI50 (HOP-62) was 15.8 µM (inactive). The GI50 (UO-31) was 17.4 µM (inactive), the GI50 (IGROV-1) was 18.6 µM (inactive) and the GI50 (SR) was 16.3 µM (inactive). The GI50 (OVCAR-8) was 17.3 µM (inactive), the GI50 (SF-295) was 18.7 µM (inactive) and the GI50 (LOX IMVI) was 16.2 µM (inactive). The GI50 (A498) was 19.9 µM (inactive), the GI50 (CCRF-CEM) was 17.6 µM (inactive) and the GI50 (T47D) was 16.7 µM (inactive). The GI50 (TK-10) was 17 µM (inactive), the GI50 (OVCAR-5) was 14.1 µM (inactive) and the GI50 (OVCAR-3) was 15.4 µM (inactive). For the same compound, the GI50 (SF-268) was 15.8 µM (inactive), the GI50 (U-251) was 12.7 µM (inactive) and the GI50 (NCI/ADR-RES) was > 100 µM (inactive). The GI50 (SK-OV-3) was 18.5 µM (inactive), the GI50 (DU-145) was 17.3 µM (inactive) and the GI50 (SK-MEL-2) was 17.4 µM (inactive). The GI50 (NCI-H460) was 17.5 µM (inactive), the GI50 (NCI-H522) was 1.67 µM (inactive) and the GI50 (MOLT-4) was 16.8 µM (inactive). For the same compound, the GI50 (HCT-116) was 14.4 µM (inactive), the GI50 (CAKI-1) was 14.2 µM (inactive) and the GI50 (SN12C) was 17.5 µM (inactive). For the same compound, the GI50 (SK-MEL-28) was 15.9 µM (inactive), the GI50 (HOP-92) was 17 µM (inactive) and the GI50 (SW-620) was 17.9 µM (inactive). The GI50 (MCF7) was 17.3 µM (inactive), the GI50 (786-0) was 16.4 µM (inactive) and the GI50 (SNB-75) was 22 µM (inactive). The GI50 (M14) was 21.3 µM (inactive), the GI50 (HCT-15) was 17.3 µM and the GI50 (OVCAR-4) was 16 µM (inactive). For the same compound, the GI50 (NCI-H23) was 18.6 µM (inactive), the GI50 (EKVX) was 19.1 µM (inactive) and the GI50 (RPMI-8226) was 12.2 µM (inactive). The GI50 (UACC-62) was 16.1 µM (inactive), the GI50 (PC-3) was 16.9 µM (inactive) and the GI50 (MDA-MB-231) was 16.9 µM (inactive). For the same compound, the GI50 (HT-29) was 17.4 µM (inactive), the GI50 (SNB-19) was 15.1 µM (inactive) and the GI50 (MDA-MB-435) was 14.8 µM (inactive). For the same compound, the GI50 (ACHN) was 16.7 µM (inactive).

In the case of `CNc1ccc(C(=O)CC(O)CCC(C)C2OC(=O)CC(O)CC(=O)CC(O)CC(O)CC(O)CC(O)CC3(O)CC(O)C(C(=O)NCCN4CCCCC4)C(CC(OC4OC(C)C(O)C(N)C4O)\C=C/C=C\C=C/C=C/C=C/C=C\C=C/C2C)O3)cc1` (stereo unspecified), the GI50 (HL-60) is reported as 3.88 µM (inactive), the GI50 (K562) is reported as 2.07 µM (inactive) and the GI50 (SR) is reported as 0.272 µM (active). For the same compound, the GI50 (A498) was 0.288 µM (active), the GI50 (KM12) was 1.82 µM (inactive) and the GI50 (MDA-MB-435) was 1.01 µM (active).
